{"source": "ChEMBL document CHEMBL1201862", "about": "“PubChem BioAssay data set” (2004)", "key": {"[1]": {"experiment": "HeLa cell cytotoxicity, dose response, cytotoxicity control for MgcRacGAP inhibitor project (AID 624300)", "type": "functional"}, "[2]": {"target": "T1, Rac GTPase-activating protein 1 (Homo sapiens, UniProt Q9H0H5)", "T1 sequence (Q9H0H5 whole entry)": "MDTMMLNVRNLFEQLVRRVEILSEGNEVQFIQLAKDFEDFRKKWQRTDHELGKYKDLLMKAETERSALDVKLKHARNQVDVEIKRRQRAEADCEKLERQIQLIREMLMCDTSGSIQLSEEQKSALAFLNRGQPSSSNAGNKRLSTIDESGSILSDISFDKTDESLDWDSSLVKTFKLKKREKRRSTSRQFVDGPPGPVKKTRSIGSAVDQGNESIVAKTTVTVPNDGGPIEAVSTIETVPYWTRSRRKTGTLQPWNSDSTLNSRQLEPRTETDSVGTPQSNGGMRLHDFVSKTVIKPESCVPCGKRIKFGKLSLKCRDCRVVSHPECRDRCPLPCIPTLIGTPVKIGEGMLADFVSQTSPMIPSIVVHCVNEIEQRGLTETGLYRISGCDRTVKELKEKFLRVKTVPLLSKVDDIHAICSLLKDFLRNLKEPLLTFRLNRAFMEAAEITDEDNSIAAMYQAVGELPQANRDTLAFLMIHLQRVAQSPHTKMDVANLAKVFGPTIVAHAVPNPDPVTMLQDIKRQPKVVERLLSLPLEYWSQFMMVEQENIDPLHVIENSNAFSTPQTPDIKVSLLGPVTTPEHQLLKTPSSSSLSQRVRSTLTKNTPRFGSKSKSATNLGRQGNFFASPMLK", "experiment": "MgcRacGAP GTPase-activating activity inhibitors, confirmation, biochemical, ADP Hunter fluorescence, primary and confirmatory (AID 624330)", "type": "functional"}, "[3]": {"experiment": "inhibitors of HIV Env-driven cell fusion, dose response, cherry-pick (AID 652057)", "type": "functional, cell-based"}, "[4]": {"experiment": "off-target signal loss in HeLa-CEM21 co-culture – HeLa F-luc CTL cells, cherry-picked, counter-screen for HIV-1 Env fusion inhibitor project, dose response (AID 652040);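 further: potency for signal decrease marking cytotoxic or nonspecific inhibition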", "type": "functional, cell-based"}, "[5]": {"experiment": "inhibitors of clade B AD8 Env fusion, dose response, cell-based, cherry-pick (AID 652062);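 further: potency is for inhibitors of fusion seen as a drop in luminescence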", "type": "functional"}, "[6]": {"experiment": "ZM109 Env clade C HIV-1 fusion inhibitors, dose response, HeLa effector, CEM target cells, luciferase, cherry-pick (AID 652058)", "type": "functional, cell-based"}, "[7]": {"target": "FAD-linked sulfhydryl oxidase ALR (Homo sapiens, UniProt P55789)", "sequence (P55789 whole entry)": "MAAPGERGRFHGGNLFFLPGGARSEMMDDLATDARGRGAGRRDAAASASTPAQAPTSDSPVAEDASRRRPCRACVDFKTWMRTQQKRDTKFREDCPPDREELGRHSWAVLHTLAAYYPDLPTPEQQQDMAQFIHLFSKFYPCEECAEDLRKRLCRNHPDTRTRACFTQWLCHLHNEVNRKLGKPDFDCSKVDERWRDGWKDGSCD", "experiment": "inhibitors of human ALR sulfhydryl oxidase, dose response, biochemical, H2O2 detection, luminescence, cherry-pick (AID 493248)"}, "[8]": {"target": "T2, DNA repair and recombination protein RAD54-like (Homo sapiens, UniProt Q92698)", "T2 sequence (Q92698 whole entry)": "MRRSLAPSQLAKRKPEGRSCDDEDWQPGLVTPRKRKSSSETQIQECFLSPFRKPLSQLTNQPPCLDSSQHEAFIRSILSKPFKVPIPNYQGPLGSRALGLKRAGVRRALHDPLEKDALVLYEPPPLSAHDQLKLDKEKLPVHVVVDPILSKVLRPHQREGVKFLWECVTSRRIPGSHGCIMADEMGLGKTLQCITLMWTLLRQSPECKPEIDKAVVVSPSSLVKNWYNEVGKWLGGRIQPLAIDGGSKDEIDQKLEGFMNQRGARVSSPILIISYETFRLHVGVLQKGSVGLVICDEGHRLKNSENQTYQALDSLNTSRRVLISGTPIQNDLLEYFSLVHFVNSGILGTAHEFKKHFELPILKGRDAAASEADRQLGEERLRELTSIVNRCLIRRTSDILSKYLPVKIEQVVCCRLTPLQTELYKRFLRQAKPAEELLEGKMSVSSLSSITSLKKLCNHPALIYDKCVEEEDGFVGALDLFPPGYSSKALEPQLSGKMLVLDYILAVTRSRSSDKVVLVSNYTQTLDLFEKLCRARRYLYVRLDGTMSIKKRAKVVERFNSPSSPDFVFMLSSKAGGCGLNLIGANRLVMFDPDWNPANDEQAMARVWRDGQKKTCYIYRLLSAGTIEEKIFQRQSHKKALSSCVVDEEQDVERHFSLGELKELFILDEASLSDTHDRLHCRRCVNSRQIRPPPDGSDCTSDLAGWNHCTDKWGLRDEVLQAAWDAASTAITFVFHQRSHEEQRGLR", "experiment": "inhibitors of human RAD54 branch migration, confirmation, biochemical, fluorescence, cherry-picked samples, dose series (AID 651657)", "type": "functional"}, "[9]": {"target": "Heat shock protein HSP 90-alpha (Homo sapiens, UniProt P07900)", "type": "functional, organism-based"}, "[10]": {"experiment": "HEK293 cell cytotoxicity, dose response, cytotoxicity control, plate reader, cherry-picked samples (AID 743446)", "type": "functional, cell-based"}, "[11]": {"experiment": "A549 cell cytotoxicity, dose response, cytotoxicity control, plate reader, cherry-pick, antagonist series (AID 743412)", "type": "functional, cell-based"}, "[12]": {"experiment": "MC4R antagonists, dose response, counter-screen for LGR2 antagonist project, cell-based, plate reader, cherry pick (AID 743444);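 further: transfected HEK 293 cells stimulated with alpha-MSH peptide; potency of inhibitors of the alpha-MSH evoked signal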", "type": "functional"}, "[13]": {"experiment": "HepG2 cell cytotoxicity, dose response, cytotoxicity control, plate reader, cherry-pick, antagonist series (AID 743416)", "type": "functional, cell-based"}, "[14]": {"experiment": "LGR2 antagonists, dose response, cell-based, HEK293, CRE-luciferase reporter, cherry pick, set 2 (AID 743343);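 further: transfected cells were stimulated with diluted bursicon conditioned medium after compound addition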", "type": "functional"}, "[15]": {"experiment": "intracellular Trypanosoma cruzi inhibitors in host cells – cell-based, plate reader, cherry-pick samples, set 3, dose response (AID 651818);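 further: compounds incubated with infected cells for about four days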", "type": "functional"}, "[16]": {"target": "T3, DNA repair protein RAD52 homolog (Homo sapiens, UniProt P43351)", "T3 sequence (P43351 whole entry)": "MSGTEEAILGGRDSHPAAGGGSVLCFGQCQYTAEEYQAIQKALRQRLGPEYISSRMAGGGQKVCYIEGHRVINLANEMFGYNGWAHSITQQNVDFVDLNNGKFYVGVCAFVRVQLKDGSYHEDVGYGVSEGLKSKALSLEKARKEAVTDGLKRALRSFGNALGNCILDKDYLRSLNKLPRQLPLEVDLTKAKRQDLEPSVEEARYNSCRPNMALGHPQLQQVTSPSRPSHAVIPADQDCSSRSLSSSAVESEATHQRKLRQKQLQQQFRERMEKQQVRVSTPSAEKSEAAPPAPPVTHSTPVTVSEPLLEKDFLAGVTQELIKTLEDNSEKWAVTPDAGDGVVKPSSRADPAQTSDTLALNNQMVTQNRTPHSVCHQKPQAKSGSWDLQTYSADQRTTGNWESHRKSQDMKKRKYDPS", "type": "functional, biochemical"}, "[17]": {"target": "T4, Long-chain-fatty-acid--AMP ligase FadD28 (Mycobacterium tuberculosis, UniProt P9WQ59)", "T4 sequence (P9WQ59 whole entry)": "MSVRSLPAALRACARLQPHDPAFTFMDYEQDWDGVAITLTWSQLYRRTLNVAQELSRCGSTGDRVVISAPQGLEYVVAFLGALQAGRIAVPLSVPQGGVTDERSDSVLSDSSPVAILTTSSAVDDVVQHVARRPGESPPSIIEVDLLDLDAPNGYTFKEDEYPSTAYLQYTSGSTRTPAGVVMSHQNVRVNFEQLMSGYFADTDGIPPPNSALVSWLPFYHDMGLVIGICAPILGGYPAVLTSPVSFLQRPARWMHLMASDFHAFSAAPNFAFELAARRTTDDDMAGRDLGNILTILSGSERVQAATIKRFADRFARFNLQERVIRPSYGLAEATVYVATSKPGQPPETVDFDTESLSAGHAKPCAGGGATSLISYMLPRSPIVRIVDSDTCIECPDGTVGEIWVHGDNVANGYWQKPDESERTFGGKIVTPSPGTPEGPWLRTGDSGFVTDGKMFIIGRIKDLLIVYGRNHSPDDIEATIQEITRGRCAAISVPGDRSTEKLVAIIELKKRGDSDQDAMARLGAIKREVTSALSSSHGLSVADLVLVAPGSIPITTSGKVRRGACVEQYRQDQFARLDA", "experiment": "Fluorescence polarization aasay to screen for inhibitors that compete for the binding of FadD28 to a bisubstrate Measured in Biochemical System Using Plate Reader - 2147-01_Inhibitor_Dose_CherryPick_Activity.", "type": "functional, Mycobacterium tuberculosis H37Rv"}}, "note": "Activity calls are given as the source filed them.", "data": [{"smiles": "Cc1ccc(S(=O)(=O)c2cc(Nc3ccccc3)ccc2O)cc1", "values": [{"measurement": "CC50", "setting": "[1]", "value": "100 µM (active)"}, {"measurement": "IC50", "setting": "[2]", "value": "48.9 µM (active)"}]}, {"smiles": "O=S(=O)(c1ccccc1Cl)N1CCCC1c1nc(-c2ccc(Cl)cc2)no1", "note": "(centres undefined)", "values": [{"measurement": "AC50", "setting": "[3]", "value": "1.99 µM (active)"}, {"measurement": "AC50", "setting": "[4]", "value": "60.9 µM (active)"}, {"measurement": "AC50", "setting": "[5]", "value": "14.8 µM (active)"}]}, {"smiles": "COc1ccc(-c2c[nH]nc2N)c(OC)c1", "values": [{"measurement": "AC50", "setting": "[3]", "value": "3.7 µM (active)"}, {"measurement": "AC50", "setting": "[6]", "value": "32.5 µM (active)"}, {"measurement": "AC50", "setting": "[7]", "value": "0.411 µM (active)"}, {"measurement": "AC50", "setting": "[4]", "value": "20 µM (active)"}, {"measurement": "AC50", "setting": "[5]", "value": "4.98 µM (active)"}]}, {"smiles": "Cc1ccc2oc(=O)c3cc(C(=O)NCCCN4CCN(C)CC4)sc3c2c1", "values": [{"measurement": "AC50", "setting": "[8]", "value": "34 µM (active)"}]}, {"smiles": "CCCCCCC(=O)N(O)C1CC(=O)N(c2ccc(F)cc2)C1=O", "note": "(centres undefined)", "values": [{"measurement": "AC50", "setting": "[9]", "value": "2.58 µM (active)"}]}, {"smiles": "C=CCN(C(=O)C1CC(=O)N(C2CCCC2)C1)c1nc(-c2ccc(S(C)(=O)=O)cc2)cs1", "note": "(centres undefined)", "values": [{"measurement": "AC50", "setting": "[10]", "value": "30.1 µM (active)"}, {"measurement": "AC50", "setting": "[11]", "value": "36.7 µM (active)"}, {"measurement": "AC50", "setting": "[12]", "value": "41.5 µM (active)"}, {"measurement": "AC50", "setting": "[13]", "value": "> 52 µM (inactive)"}, {"measurement": "AC50", "setting": "[14]", "value": "25.8 µM (active)"}]}, {"smiles": "CN(C)c1ccc2c(c1)C(=NO)c1ccccc1-2", "values": [{"measurement": "CC50", "setting": "[1]", "value": "100 µM (active)"}, {"measurement": "IC50", "setting": "[2]", "value": "33.5 µM (active)"}]}, {"smiles": "C[N+](C)(C)CCC(=O)N1C/C(=C/c2ccccc2)C(=O)/C(=C\\c2ccccc2)C1", "values": [{"measurement": "CC50", "setting": "[1]", "value": "100 µM (active)"}, {"measurement": "IC50", "setting": "[2]", "value": "128 µM (active)"}]}, {"smiles": "C[C@@H]1CN([C@H](C)CO)C(=O)Cc2cc(NC(=O)Nc3ccc(F)cc3)ccc2O[C@H]1CN(C)Cc1ccc(-c2ccccc2)cc1", "values": [{"measurement": "AC50", "setting": "[15]", "value": "3.36 µM (active)"}]}, {"smiles": "C[C@H]1CN([C@@H](C)CO)C(=O)Cc2cc(NC(=O)Cc3ccccc3)ccc2O[C@H]1CN(C)Cc1ccc(C(F)(F)F)cc1", "values": [{"measurement": "AC50", "setting": "[15]", "value": "2.61 µM (active)"}]}, {"smiles": "CN1CCCN(c2cc(-c3ccc4ccccc4c3)nc3ccnn23)CC1", "values": [{"measurement": "AC50", "setting": "[8]", "value": "8.49 µM (active)"}, {"measurement": "AC50", "setting": "[16]", "value": "1.57 µM (active)"}]}, {"smiles": "C[C@@H]1CN([C@H](C)CO)C(=O)Cc2cc(NC(=O)Nc3ccc4c(c3)OCO4)ccc2O[C@@H]1CN(C)Cc1ccc(C(F)(F)F)cc1", "values": [{"measurement": "AC50", "setting": "[15]", "value": "3.86 µM (active)"}]}, {"smiles": "Cc1ccc(S(=O)(=O)N(C)C[C@H]2Oc3ccc(NS(=O)(=O)c4ccccc4)cc3CC(=O)N([C@H](C)CO)C[C@H]2C)cc1", "values": [{"measurement": "AC50", "setting": "[15]", "value": "2.56 µM (active)"}]}, {"smiles": "C[C@H]1CN([C@@H](C)CO)C(=O)Cc2cc(NC(=O)Nc3ccc(C(F)(F)F)cc3)ccc2O[C@H]1CN(C)Cc1ccncc1", "values": [{"measurement": "AC50", "setting": "[15]", "value": "5.53 µM (active)"}]}, {"smiles": "C[C@@H]1CNC(=O)c2c(C(=O)N(C)Cc3ccccc3)ncn21", "values": [{"measurement": "AC50", "setting": "[3]", "value": "1.86 µM (active)"}, {"measurement": "AC50", "setting": "[6]", "value": "4.8 µM (active)"}, {"measurement": "AC50", "setting": "[4]", "value": "3.39 µM (active)"}, {"measurement": "AC50", "setting": "[5]", "value": "3.68 µM (active)"}]}, {"smiles": "O=C(O)c1ccc(N/N=C/c2ccc(-c3ccccc3)cc2)cc1", "values": [{"measurement": "AC50", "setting": "[17]", "value": "10.9 µM (active)"}, {"measurement": "AC50", "setting": "[9]", "value": "3.09 µM (active)"}]}]}
